Experimental findings from ChEMBL document CHEMBL1201862, “PubChem BioAssay data set” (2004) are described below.

Assay [1] has as its target Voltage-dependent T-type calcium channel subunit alpha-1H (Homo sapiens, UniProt O95180). The assay is described as follows: human CACNA1H calcium influx blockade – cell-based, synthetic library set 1, calcium flux (AID 493022). Type of assay: functional. Background: Calcium flux is commonly read through the fluorescence of an indicator in the cells.
Assay [2] in a line: Luminescence Cell-Based Dose Confirmation HTS to Identify Activators of 5'UTR Stem-Loop Driven Alpha-Synuclein mRNA Translation in H4 Neuroglioblastoma Cells. [Related pubchem assays: 1829 (Project Summary), 1814 (Primary HTS)]. Type of assay: functional.
For another assay, the system named is T-cell. The assay is described as follows: loss of vesicle association with mouse CD8+ T cells – mouse 2C CD8+ T cells, flow cytometry, dose response (AID 485284). Type of assay: functional.
Another assay concerns H4. Kind of assay: Luminescence Cell-Based Dose Response HTS to Identify Activators of 5'UTR Stem-Loop Driven Prion Protein mRNA Translation in H4 Neuroglioblastoma Cells. [Related pubchem assays: 1829 (Project Summary), 1814 (Primary HTS)]. The format is functional. As to conditions: Homo sapiens.
A short description of assay [3]: Luminescence Cell-Based Dose Response HTS to Identify Activators of Luciferase Translation or Activity in H4 […] Cells. [Related pubchem assays: 1829 (Project Summary), 1814 (Primary HTS)]. The format is functional.
Assay [4] addresses T1, Tyrosine-protein phosphatase non-receptor type 22 (Homo sapiens, UniProt Q9Y2R2).
T1 sequence (Q9Y2R2 whole entry): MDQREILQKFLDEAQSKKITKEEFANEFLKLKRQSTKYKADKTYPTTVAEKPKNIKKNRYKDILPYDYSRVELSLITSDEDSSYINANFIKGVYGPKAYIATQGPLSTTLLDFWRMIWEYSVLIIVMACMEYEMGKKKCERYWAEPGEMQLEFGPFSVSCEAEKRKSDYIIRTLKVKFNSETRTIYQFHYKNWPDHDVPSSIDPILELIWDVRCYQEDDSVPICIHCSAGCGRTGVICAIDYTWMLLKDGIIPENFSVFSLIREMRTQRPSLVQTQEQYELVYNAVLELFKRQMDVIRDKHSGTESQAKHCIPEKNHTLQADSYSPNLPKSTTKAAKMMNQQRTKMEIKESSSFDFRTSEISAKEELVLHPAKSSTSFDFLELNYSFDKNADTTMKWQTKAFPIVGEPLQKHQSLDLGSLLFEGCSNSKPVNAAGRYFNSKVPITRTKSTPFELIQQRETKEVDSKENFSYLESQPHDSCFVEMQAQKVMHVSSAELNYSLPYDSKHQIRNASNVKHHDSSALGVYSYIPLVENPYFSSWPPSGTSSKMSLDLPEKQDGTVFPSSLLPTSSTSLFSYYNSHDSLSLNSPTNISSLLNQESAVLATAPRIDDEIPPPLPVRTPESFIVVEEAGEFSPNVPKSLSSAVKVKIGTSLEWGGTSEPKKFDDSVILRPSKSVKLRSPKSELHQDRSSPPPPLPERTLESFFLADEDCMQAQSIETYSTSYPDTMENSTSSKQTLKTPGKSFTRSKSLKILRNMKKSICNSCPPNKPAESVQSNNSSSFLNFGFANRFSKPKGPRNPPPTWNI
The assay is described as follows: inhibition of lymphoid tyrosine phosphatase LYP – biochemical, pCAP fluorogenic substrate, fluorescence, set 3, SAR follow-up (AID 449727). Type of assay: functional.

For assay [5], the target named is T1, Tyrosine-protein phosphatase non-receptor type 22. The assay is described as follows: PubChem AID 2140.
Assay [6] has the same target. Kind of assay: PubChem AID 2135.
The next assay has as its target T2, Coagulation factor XII (Homo sapiens, UniProt P00748).
T2 sequence (P00748 whole entry): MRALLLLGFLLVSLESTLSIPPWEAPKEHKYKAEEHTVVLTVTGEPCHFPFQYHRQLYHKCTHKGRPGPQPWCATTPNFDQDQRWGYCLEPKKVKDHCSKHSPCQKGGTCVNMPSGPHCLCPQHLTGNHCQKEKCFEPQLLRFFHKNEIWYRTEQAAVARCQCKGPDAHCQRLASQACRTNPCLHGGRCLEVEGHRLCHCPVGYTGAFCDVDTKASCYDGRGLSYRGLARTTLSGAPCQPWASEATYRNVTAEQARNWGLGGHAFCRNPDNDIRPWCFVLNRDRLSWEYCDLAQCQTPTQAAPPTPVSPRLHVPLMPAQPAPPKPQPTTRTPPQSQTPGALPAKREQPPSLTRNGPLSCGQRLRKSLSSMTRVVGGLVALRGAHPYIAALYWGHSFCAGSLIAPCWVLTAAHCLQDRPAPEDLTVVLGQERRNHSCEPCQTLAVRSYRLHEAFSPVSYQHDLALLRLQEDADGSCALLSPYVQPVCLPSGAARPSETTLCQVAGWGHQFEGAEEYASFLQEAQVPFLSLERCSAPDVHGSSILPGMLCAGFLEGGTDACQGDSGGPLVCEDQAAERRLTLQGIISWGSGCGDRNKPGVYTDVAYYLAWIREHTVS
Kind of assay: activated coagulation factor XII inhibitor potency, concentration-effect curve, cell-free (AID 716). Type of assay: functional.

The next assay deals with Trypanosoma cruzi. The assay is described as follows: anti-trypanosomal activity in host cells – cell-based, plate reader, dry powder, set 3, dose response (AID 493197). The format is functional.
Assay [7] is described as follows: NIH/3T3 cell viability loss – mouse embryonic fibroblasts, dry powder, set 2, cytotoxicity control, dose response (AID 493247). Particulars: Fibroblast. Type of assay: functional, cell-based.
In assay [8] the target is T3, Type-1 angiotensin II receptor (Homo sapiens, UniProt P30556).
T3 sequence (P30556 whole entry): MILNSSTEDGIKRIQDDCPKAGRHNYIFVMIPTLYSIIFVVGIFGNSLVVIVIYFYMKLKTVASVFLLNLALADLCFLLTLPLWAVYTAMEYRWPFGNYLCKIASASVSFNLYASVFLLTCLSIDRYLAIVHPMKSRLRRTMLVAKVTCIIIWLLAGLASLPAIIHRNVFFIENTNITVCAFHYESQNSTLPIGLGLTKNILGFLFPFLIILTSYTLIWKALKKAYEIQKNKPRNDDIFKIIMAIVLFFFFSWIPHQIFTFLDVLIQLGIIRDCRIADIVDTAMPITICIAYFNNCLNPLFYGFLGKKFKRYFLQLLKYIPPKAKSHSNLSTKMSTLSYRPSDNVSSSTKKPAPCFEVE
Kind of assay: agonist activity at AGTR1 – cell-based, uHTS hits, selectivity assay for APJ receptor agonist project, dose response (AID 488865).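 Note: beta-arrestin recruitment to AT1 measured by enzyme fragment complementation luminescence.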 The format is functional.

Assay [9] concerns the target T4, Ubiquitin-conjugating enzyme E2 N (Homo sapiens, UniProt P61088).
T4 sequence (P61088 whole entry): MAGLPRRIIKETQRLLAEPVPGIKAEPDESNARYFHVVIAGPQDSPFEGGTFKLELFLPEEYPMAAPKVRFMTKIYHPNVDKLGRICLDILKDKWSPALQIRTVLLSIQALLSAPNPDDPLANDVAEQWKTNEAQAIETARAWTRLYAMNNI
Type of assay: functional.

Assay [10] concerns the target T5, DNA repair protein RAD52 homolog (Homo sapiens, UniProt P43351).
T5 sequence (P43351 whole entry): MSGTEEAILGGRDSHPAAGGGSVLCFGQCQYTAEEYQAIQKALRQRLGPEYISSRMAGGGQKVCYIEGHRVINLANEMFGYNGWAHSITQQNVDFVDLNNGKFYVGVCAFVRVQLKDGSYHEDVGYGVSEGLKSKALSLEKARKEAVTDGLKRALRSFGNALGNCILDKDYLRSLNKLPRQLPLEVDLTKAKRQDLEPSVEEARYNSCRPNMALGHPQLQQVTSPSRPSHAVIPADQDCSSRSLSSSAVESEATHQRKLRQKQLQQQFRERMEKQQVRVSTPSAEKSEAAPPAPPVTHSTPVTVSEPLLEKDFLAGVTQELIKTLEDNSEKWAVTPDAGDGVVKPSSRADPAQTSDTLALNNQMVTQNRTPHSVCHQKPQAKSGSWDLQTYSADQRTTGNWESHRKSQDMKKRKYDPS
Type of assay: functional, biochemical.

The next assay addresses T6, Bcl-2-related protein A1 (Mus musculus, UniProt Q07440).
T6 sequence (Q07440 whole entry): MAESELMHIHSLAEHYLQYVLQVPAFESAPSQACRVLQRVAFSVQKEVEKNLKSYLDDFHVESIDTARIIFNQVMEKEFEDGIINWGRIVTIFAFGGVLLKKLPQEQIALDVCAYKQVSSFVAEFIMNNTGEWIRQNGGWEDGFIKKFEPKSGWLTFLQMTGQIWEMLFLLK
Type of assay: functional.

The target in assay [11] is T4, Ubiquitin-conjugating enzyme E2 N. The format is functional. This is another data set of the same source.
The next assay concerns the target Mu-type opioid receptor (Homo sapiens, UniProt P35372). Kind of assay: SAR Analysis of Agonists of the MOR Receptor using an Image-Based Assay - Set 3. [Related pubchem assays (depositor defined):AID1777, AID1785, AID1786, AID1966, AID2133, AID2136, AID2284, AID2285, AID2352]. The format is functional.
Assay [12] deals with T7, Kappa-type opioid receptor (Homo sapiens, UniProt P41145). Kind of assay: SAR analysis of small molecule agonists of the kappa opioid receptor via a luminescent beta-arrestin assay - Set 3. [Related pubchem assays (depositor defined):AID1777, AID1785, AID1786, AID1966, AID2133, AID2136, AID2284, AID2500]. Type of assay: functional.
T7 sequence (P41145 whole entry): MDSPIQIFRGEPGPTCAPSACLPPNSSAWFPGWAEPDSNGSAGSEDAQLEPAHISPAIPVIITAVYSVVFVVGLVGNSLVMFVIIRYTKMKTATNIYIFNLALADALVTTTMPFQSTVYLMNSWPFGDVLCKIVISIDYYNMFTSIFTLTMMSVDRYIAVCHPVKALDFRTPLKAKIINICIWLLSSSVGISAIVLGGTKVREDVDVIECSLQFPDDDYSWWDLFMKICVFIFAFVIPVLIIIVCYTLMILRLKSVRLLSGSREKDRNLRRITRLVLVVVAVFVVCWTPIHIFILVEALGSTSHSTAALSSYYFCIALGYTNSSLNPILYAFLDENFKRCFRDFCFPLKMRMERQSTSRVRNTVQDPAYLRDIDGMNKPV
In assay [13] the target is Delta-type opioid receptor (Homo sapiens, UniProt P41143). The assay is described as follows: SAR Analysis of Agonists of the DOR Receptor using an Image-Based Assay - Set 3. [Related pubchem assays (depositor defined):AID1777, AID1786]. The format is functional.
Chain of Delta-type opioid receptor (P41143 whole entry): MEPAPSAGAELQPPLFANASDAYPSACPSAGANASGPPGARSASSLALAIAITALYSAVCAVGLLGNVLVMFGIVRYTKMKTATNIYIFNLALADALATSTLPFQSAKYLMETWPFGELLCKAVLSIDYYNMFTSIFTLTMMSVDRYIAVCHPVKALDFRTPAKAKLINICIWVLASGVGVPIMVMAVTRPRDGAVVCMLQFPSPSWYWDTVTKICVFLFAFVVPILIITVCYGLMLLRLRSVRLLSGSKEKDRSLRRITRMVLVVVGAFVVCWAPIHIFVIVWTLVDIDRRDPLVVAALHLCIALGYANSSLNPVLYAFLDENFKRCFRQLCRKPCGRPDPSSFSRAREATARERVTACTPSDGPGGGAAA
Assay [14] concerns the target T7, Kappa-type opioid receptor. Kind of assay: kappa opioid receptor activation by imaging – image-based, set 3, SAR follow-up (AID 488833). The format is functional.
Assay [15] in a line: Vero E6 cell cytotoxicity, dose response, cytotoxicity control for non-replicating M. tuberculosis project, secondary assay (AID 492998). As to conditions: Vero C1008. Type of assay: functional, VeroE6.
The target in assay [16] is DNA damage-inducible transcript 3 protein (Mus musculus, UniProt P35639). Type of assay: functional, Cricetulus griseus.
Chain of DNA damage-inducible transcript 3 protein (P35639 whole entry): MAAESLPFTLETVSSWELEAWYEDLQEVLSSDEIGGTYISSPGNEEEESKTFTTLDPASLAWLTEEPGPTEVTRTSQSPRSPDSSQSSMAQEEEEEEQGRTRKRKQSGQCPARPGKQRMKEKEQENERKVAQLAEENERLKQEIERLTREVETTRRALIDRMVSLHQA
Another assay has as its target X-box-binding protein 1 (Homo sapiens, UniProt P17861). Type of assay: functional, Cricetulus griseus.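 Note: confirmatory dose-response counter-screen serving a CHOP assay.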
The target of assay [17] is Potassium voltage-gated channel subfamily KQT member 2 (Rattus norvegicus, UniProt O88943). Kind of assay: potentiation of rat KCNQ2 current – cell-based, retigabine-insensitive compounds, dose response (AID 2654). Type of assay: functional.
Chain of Potassium voltage-gated channel subfamily KQT member 2 (O88943 whole entry): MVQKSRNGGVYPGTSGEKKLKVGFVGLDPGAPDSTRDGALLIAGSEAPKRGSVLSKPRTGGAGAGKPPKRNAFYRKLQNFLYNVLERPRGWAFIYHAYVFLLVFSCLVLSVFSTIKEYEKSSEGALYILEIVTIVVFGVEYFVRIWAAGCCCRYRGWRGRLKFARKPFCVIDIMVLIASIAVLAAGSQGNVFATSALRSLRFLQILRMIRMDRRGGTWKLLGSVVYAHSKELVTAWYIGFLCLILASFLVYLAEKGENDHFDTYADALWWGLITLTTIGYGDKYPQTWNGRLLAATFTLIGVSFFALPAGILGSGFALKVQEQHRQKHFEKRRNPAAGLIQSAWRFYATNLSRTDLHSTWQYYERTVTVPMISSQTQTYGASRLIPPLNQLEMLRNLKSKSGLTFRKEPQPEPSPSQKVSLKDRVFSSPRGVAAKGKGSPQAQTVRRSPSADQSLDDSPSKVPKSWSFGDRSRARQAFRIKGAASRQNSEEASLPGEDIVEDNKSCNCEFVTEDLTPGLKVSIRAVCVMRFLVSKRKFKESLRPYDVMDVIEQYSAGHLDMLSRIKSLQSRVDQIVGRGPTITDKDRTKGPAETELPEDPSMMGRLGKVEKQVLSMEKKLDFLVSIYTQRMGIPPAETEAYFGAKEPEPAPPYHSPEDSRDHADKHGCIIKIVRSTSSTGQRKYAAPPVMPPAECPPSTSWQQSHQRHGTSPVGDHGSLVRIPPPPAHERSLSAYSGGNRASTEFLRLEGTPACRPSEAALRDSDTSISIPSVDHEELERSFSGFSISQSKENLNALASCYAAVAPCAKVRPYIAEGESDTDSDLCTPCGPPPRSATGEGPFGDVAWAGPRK
Assay [18] addresses Eukaryotic translation initiation factor 4H (Homo sapiens, UniProt Q15056). Kind of assay: inhibitors of translation initiation factor eIF4H – SAR follow-up (AID 435011). Type of assay: functional.
Assay [19] addresses Polyadenylate-binding protein 1 (Homo sapiens, UniProt P11940). The assay is described as follows: PABP inhibition in translation initiation, SAR follow-up (AID 435018). The format is functional.

The source made the active and inactive calls.

Chain of X-box-binding protein 1 (P17861 whole entry): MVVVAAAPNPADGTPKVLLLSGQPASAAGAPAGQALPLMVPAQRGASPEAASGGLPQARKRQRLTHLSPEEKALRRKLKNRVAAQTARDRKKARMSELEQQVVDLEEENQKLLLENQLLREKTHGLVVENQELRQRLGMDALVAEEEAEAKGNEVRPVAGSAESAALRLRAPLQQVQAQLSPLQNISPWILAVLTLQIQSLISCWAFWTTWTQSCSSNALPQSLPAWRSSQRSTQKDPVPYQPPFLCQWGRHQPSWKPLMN
Chain of Voltage-dependent T-type calcium channel subunit alpha-1H (O95180 whole entry): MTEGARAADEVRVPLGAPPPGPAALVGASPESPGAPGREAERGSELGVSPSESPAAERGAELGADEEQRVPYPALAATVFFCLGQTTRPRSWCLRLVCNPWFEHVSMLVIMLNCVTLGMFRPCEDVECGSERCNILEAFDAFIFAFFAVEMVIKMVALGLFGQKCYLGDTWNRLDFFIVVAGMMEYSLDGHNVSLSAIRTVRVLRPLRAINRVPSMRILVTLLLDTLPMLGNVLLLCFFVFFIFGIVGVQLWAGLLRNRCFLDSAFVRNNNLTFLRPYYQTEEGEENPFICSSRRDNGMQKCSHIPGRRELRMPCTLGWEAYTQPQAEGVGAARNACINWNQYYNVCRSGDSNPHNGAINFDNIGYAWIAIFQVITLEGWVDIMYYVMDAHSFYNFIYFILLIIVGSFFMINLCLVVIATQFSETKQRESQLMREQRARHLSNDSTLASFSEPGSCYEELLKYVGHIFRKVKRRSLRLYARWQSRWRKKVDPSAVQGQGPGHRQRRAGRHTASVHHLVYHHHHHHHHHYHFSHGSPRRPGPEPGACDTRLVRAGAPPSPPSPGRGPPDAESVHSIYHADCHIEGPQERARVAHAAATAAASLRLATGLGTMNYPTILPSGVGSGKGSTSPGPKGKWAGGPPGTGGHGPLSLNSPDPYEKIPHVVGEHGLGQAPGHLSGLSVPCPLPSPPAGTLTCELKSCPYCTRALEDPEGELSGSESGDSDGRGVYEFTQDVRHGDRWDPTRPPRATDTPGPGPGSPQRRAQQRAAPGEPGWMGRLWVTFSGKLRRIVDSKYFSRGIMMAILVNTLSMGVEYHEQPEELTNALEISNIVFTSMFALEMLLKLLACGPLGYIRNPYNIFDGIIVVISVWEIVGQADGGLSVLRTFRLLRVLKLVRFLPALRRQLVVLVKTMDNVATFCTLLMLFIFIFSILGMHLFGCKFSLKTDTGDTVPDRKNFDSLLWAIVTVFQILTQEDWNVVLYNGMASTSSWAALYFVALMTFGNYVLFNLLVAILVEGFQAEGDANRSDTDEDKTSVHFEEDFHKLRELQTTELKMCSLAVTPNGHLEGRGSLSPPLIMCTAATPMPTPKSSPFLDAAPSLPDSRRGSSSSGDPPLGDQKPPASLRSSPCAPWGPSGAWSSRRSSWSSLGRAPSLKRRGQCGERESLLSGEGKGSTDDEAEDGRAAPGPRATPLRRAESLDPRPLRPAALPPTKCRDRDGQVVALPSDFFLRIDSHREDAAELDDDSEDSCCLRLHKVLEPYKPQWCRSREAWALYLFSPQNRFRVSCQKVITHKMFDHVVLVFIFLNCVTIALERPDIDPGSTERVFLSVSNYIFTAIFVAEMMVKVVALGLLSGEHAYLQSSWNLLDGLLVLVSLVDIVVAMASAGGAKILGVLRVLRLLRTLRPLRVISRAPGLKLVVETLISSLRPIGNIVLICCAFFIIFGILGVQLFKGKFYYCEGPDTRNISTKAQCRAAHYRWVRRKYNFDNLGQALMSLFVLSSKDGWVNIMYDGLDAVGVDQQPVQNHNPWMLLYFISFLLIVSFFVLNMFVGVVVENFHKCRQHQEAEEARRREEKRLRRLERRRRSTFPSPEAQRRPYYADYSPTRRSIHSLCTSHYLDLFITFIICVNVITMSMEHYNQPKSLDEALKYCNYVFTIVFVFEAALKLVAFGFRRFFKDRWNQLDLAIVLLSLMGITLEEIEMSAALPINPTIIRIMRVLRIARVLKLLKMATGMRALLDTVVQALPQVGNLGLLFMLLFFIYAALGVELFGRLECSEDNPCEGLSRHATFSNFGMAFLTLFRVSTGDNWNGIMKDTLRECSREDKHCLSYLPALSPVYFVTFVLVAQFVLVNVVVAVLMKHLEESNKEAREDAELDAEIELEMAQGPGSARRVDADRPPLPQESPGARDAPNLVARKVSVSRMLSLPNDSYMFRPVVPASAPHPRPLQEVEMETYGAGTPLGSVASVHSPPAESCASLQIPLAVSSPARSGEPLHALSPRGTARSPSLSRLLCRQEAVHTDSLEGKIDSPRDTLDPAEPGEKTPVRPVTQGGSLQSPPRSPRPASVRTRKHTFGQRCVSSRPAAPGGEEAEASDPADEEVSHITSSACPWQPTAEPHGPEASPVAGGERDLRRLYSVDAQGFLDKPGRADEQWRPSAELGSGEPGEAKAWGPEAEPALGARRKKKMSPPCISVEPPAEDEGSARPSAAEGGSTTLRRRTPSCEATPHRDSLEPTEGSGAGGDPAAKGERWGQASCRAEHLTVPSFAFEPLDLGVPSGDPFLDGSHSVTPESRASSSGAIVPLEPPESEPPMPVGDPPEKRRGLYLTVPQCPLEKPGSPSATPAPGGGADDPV
Chain of Mu-type opioid receptor (P35372 whole entry): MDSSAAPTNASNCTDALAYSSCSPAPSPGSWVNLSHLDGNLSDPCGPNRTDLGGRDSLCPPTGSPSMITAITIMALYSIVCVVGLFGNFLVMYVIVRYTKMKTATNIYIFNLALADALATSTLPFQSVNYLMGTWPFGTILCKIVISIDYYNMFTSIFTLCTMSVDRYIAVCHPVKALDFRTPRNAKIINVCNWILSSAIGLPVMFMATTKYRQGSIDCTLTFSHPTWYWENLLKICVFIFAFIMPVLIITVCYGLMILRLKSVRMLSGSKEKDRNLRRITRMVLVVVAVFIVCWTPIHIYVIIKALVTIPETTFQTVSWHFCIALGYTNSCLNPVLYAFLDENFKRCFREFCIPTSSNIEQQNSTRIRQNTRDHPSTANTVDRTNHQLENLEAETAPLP

Consider `O=C(COc1ccc(Cl)cc1)Nc1nnc(-c2ccc(F)c(F)c2)o1`, for which the half-maximal effective concentration (EC50) in [1] was 1.5 µM (active).

Consider `O=C(CC1=NCCNC(c2ccccc2)C1)c1ccccc1O` (stereo unspecified), for which the EC50 in [2] was 69.3 µM (active); in the assay with T-cell it was 0.565 µM (active); in the assay with H4, 67.6 µM (active); in assay [3], 43.1 µM (active).

On to `CCOc1ccc2nc(NC(=O)CSC3=Nc4sc(C)c(C)c4C(=O)C3)sc2c1`, for which the IC50 in assay [4] is > 100 µM (inactive); in assay [5], 43.4 µM (active); in assay [6], > 100 µM (inactive).

As to `O=C(CN1C(=O)c2ccccc2S1(=O)=O)N1CCN(c2ccccc2F)CC1`, the IC50 on Coagulation factor XII is > 50 µM (inactive).

Take `CN(Cc1ccccc1)C(=O)C1CCCN(Cc2ccc(Br)cc2)C1` (stereo unspecified): the figures for the AC50 (with Trypanosoma cruzi; in assay [7]) were 3.01 µM (active) and 74.3 µM (active), respectively.

In the case of `COc1cccc2sc(N(CCCN(C)C)C(=O)c3ccc(S(=O)(=O)N4CCc5ccccc5C4)cc3)nc12`, the EC50 in [8] is > 100 µM (inactive). The IC50 was 13.9 µM (active) in assay [9], > 20 µM (inactive) on Bcl-2-related protein A1 and 10.8 µM (active) in assay [11]. Besides, in [10], the AC50 was 23.1 µM (active).

For the molecule `Fc1ccc(CSc2nnc(-c3ccccn3)n2Cc2cccs2)c(C(F)(F)F)c1`, the EC50 was > 32 µM (inactive) on Mu-type opioid receptor, 4.46 µM (active) in assay [12], > 32 µM (inactive) in assay [13] and 2.26 µM (active) in assay [14].

Take `O=C1NN(c2ccccc2)C(=O)/C1=C/c1ccc(Sc2ccc(Cl)cc2)o1`: the CC50 in assay [15] was > 20 µM (active). Besides, in assay [16], the “Absolute IC50 (CHOP)” value was 10 µM. The “Absolute IC50 (XBP1)” value at X-box-binding protein 1 was determined as 10 µM.

In the case of `O=C(NCc1ccc(Cl)cc1Cl)Nc1cncc(F)c1`, the EC50 in assay [17] was 8.64 µM (active).

For the molecule `Cc1cccc(NC(=O)CSc2ccc(-c3ccco3)nn2)c1C`, the IC50 is 71.5 µM (active) in [18] and > 100 µM (inactive) in assay [19].

As a reminder, the EC50 is the concentration that produces a half-maximal response. The IC50 is the concentration that gives 50% inhibition. As a reminder, the AC50 is the midpoint of the concentration-response curve, whichever way the signal moves. Usually CC50 stands for the concentration at which the toxic effect on the cells reaches its halfway point.
